pEC50: −log10 of the molar value. Values joined by “and” are separate entries in the source; they are usually repeats but may differ in a detail not shown here. Identical values can stand only once. “Also recorded” adds a separate entry of the source. Bridge positions count the residues as written; N and C are the ends. Square brackets hold non-standard residues; d marks the D form. Peptide text beside a SMILES is read from it. Hyp = O=C(O)[C@@H]1C[C@@H](O)CN1
Key:
[1] = system: primary cultures of cortex; assay type: cell-based, rat
[2] = system: primary cultures of cortex; assay type: cell-based, rat; remark: listed apart in the source
cardiac myocytes = assay type: cell-based, rat
[3] = system: primary cultures of cortical neurons; assay type: cell-based, rat
[4] = system: cardiac ventricular myocytes; assay type: cell-based, rat
[5] = system: ventricular myocytes, cortex and trachea; assay type: cell-based, rat
[6] = system: primary cultures of cortex; assay type: cell-based, rat; remark: listed apart in the source
anesthetized rat = conditions: in vivo, iv
[7] = system: primary cultures of cortex
[8] = system: primary cultures of ventricular myocytes
[9] = target: Shaker H4 potassium channel (Drosophila melanogaster, UniProt P08510); conditions: cited from earlier work
[10] = system: primary cortical cultures
[11] = system: New Zealand White rabbits; conditions: rabbit, in vivo
canine model of AMI = conditions: dog, in vivo
Kv1.1 = target: T1, Kv1.1 (Homo sapiens, UniProt Q09470); conditions: cited from earlier work
T1 construct: host or cells: oocytes

Kv1.4 = Kv1.4 (Homo sapiens, UniProt P22459); conditions: cited from earlier work
Kv1.3 = target: T2, Kv1.3 (Homo sapiens, UniProt P22001); conditions: cited from earlier work
T2 construct: host or cells: oocytes

F425G Shaker mutation = F425G Shaker mutation (Drosophila melanogaster, UniProt P08510, F425G); conditions: cited from earlier work
Chain of F425G Shaker mutation (P08510 whole entry F425G): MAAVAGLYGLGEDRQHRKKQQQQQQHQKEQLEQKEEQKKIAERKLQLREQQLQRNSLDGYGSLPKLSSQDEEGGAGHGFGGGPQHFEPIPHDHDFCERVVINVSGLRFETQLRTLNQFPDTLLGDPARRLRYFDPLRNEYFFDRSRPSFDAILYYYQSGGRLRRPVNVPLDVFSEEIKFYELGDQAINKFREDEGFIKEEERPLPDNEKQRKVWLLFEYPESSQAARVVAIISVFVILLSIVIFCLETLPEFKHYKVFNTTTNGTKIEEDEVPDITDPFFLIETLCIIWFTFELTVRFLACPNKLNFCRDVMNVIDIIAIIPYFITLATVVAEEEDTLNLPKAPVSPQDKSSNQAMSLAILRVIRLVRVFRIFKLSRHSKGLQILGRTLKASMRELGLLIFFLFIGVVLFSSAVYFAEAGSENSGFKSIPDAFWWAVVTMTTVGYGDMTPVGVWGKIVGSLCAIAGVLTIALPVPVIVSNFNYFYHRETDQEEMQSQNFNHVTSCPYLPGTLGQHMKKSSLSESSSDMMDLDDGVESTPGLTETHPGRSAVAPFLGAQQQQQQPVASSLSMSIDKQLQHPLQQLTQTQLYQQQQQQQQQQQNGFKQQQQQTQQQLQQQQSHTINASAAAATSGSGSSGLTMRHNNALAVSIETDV

T1 sequence (Q09470 whole entry): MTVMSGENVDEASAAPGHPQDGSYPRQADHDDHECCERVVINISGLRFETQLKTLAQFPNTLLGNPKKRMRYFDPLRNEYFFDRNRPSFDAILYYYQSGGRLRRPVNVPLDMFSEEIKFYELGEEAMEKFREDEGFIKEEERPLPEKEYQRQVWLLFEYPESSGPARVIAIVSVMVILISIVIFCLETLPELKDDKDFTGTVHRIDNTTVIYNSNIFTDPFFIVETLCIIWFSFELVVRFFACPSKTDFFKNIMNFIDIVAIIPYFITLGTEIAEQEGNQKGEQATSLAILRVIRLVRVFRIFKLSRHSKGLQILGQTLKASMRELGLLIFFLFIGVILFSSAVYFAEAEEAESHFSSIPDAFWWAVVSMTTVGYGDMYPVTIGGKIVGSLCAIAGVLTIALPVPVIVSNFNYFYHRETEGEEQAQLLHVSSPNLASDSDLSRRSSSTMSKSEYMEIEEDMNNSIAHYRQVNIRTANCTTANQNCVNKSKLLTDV
Chain of Kv1.4 (P22459 whole entry): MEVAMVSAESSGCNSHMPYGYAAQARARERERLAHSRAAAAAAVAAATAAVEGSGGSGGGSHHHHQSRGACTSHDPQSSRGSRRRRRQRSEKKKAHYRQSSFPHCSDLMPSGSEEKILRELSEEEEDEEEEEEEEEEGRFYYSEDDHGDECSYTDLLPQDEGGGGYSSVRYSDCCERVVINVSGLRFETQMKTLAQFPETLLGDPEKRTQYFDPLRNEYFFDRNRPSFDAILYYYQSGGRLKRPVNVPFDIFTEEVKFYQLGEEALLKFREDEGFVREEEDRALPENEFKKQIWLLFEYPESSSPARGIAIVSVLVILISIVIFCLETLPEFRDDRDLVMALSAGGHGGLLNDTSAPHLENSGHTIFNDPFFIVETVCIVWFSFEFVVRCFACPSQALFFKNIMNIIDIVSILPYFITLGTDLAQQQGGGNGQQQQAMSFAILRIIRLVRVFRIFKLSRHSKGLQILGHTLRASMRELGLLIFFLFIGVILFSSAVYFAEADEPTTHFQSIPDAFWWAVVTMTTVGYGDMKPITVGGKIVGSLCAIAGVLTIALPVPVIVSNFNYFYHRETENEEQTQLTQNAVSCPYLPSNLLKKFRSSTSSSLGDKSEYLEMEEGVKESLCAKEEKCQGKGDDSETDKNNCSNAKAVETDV
T2 sequence (P22001 whole entry): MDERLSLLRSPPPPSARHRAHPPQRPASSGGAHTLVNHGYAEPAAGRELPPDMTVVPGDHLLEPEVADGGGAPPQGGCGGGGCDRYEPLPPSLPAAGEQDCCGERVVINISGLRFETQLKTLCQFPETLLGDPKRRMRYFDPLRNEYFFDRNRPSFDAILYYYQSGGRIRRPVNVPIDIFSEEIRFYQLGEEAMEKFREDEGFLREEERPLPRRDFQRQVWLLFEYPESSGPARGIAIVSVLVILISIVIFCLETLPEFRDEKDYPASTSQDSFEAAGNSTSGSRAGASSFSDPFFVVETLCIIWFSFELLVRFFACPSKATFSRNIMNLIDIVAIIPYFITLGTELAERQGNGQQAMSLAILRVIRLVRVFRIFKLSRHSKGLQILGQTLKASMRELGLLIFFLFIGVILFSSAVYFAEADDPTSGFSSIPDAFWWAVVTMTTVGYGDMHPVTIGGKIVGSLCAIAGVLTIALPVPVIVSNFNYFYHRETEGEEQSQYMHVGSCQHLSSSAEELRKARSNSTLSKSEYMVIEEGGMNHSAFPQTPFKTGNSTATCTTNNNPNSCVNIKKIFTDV
Chain of Shaker H4 potassium channel (P08510 whole entry): as the sequence (P08510 whole entry F425G) above, with G425F counted along it

Which results are given for `CC[C@H](C)[C@@H]1NC(=O)[C@H](CCCNC(=N)N)NC(=O)[C@@H](N)CSSC[C@@H]2NC(=O)[C@@H]3CSSC[C@@H](C(=O)N[C@H](C(=O)O)C(C)C)NC(=O)[C@H](CCCCN)NC(=O)[C@H](CC(N)=O)NC(=O)[C@H](Cc4ccccc4)NC(=O)[C@H](CCCNC(=N)N)NC(=O)[C@H](CC(N)=O)NC(=O)[C@H](CSSC[C@H](NC(=O)[C@H](CCCCN)NC(=O)[C@H](CCC(N)=O)NC(=O)[C@H](CC(N)=O)NC(=O)[C@@H]4C[C@@H](O)CN4C1=O)C(=O)N[C@@H](Cc1ccccc1)C(=O)N[C@@H](CCC(N)=O)C(=O)N[C@@H](Cc1c[nH]cn1)C(=O)N[C@@H](CC(C)C)C(=O)N[C@@H](CC(=O)O)C(=O)N[C@@H](CC(=O)O)C(=O)N3)NC(=O)[C@H](CCCCN)NC(=O)[C@H](CCCNC(=N)N)NC(=O)[C@H](CO)NC2=O` [κ-PVIIA, Cys-Xaa1-Ile-Xaa2-Asn-Gln-Xaa3-Cys-Xaa4-Gln-Xaa5-Leu-Asp-Asp-Cys-Cys-Ser-Xaa1-Xaa3-Cys-Asn-Xaa1-Xaa4-Asn-Xaa3-Cys-Val] (H-CRI[Hyp]NQKCFQHLDDCCSRKCNRFNKCV-OH; disulfide 1-16, 8-20, 15-26)?
intracellular K+ concentration (PBFI fluorescence) [1]: reduction; current corrected for cell capacitance [2]: 2.4±0.7 pA/pf; current evoked by κ-PVIIA [2]: 26.2±6.2 pA; reversal of κ-PVIIA-induced inward current [2]: ~−20 mV; sensitivity of evoked currents to KATP antagonists [2]: sensitive; current corrected for cell capacitance (cardiac myocytes): 4.6±0.4 pA/pf; current evoked by κ-PVIIA (cardiac myocytes): 87.7±5.9 pA; experimentally determined Ek (reversal potential of evoked current) (cardiac myocytes): −23 mV; reversal of κ-PVIIA-induced inward current (cardiac myocytes): ~−20 mV; sensitivity of evoked currents to KATP antagonists (cardiac myocytes): sensitive; change in intracellular calcium (Fluo-3 fluorescence) [3]: −2.15±0.95% and −8.8±3.9%; protection against hypoxia-induced depolarization [4]: prevented any hypoxia-induced changes in membrane potential; also recorded: protective effect; protective effect against hypoxia induced depolarization (initial screen, Example 10) [4]: strong protective effect; effect on infarct size (isolated rabbit hearts): reduced the infarct size; also recorded: no effect; protection against hypoxia-induced changes in intracellular calcium [5]: able to provide protection against hypoxia; initial glutamate-induced depolarization [6]: prevents the initial glutamate-induced depolarization; effect on blood pressure (anesthetized rat): no effect; effect on heart rate (anesthetized rat): no effect; pEC50 [7]: 15.10; pEC50 [8]: 15.05; block of the Drosophila H4 shaker K+ channel [9]: block; degree of glutamate-induced excitotoxicity (delayed cellular death) (cortical cells): effectively reduces the degree of glutamate-induced excitotoxicity in a dose-dependant manner; protection against delayed cytotoxic effects of glutamate (cortical cells): very effective protection; protease activity (cytotoxicity) [10]: no detectable protease activity; hemodynamic effect [11]: without any hemodynamic effect; lowest effective dose [11]: 0.01 mg/kg; infarct size as % of risk zone, protection ([11]; iv): equally as protective; drop in blood pressure normally seen upon reperfusion (canine model of AMI): prevented the drop in blood pressure; lowest effective dose (canine model of AMI): 0.1 mg/kg; effect on infarct size (canine model of AMI; iv): No significant effect; reduction of infarct size (canine model of AMI; iv): approximately 60%; activity on Kv1.1 (Kv1.1): no effects; also recorded: no detectable activity; activity on Kv1.4 (Kv1.4): no detectable activity; effects on Kv1.3 (Kv1.3): no effects; effect of F425G Shaker mutation on κ-PVIIA sensitivity (F425G Shaker mutation): abolishes
